In test [1] the test system is transcriptional activity of TEADs. Description: TEAD reporter assay (MCF7 TEAD-LUC reporter cells). The class given is cell-based. The note with it: Homo sapiens, 24 hours, BrightGlo luminescence. The protocol:
MCF7 TEAD-LUC reporter cells were obtained from BPS Bioscience, Inc. and cultured in DMEM medium (Corning, 10-013-CV) supplemented with 10% fetal bovine serum (Gibco, 10438-026), 1% penicillin-streptomycin (Gibco, 15070063), 1% non-essential amino acids (Gibco, 15070063), and 10 μg/mL insulin (Sigma, 10516). Cells were trypsinized, resuspended in growth medium, and diluted to a concentrated of 100,000 cells/mL. 5,000 cells, 50 μL of cell suspension, per well were then plated in a white 384-well plate (Corning) and incubated at 37° C., 5% CO2. After 24 hours incubation, 100 nL of test compounds in DMSO, 20-point 1:2 dilution starting from 20 μM (final concentration) in triplicate, were transferred to each well using an Agilent Bravo instrument outfitted with a pintool head. Cells were incubated at 37° C., 5% CO2 for 24 hours followed by the addition of 30 μL of BrightGlo (Promega; diluted 1:3 in water) to each well and luminescence values recorded using an EnVision plate reader.
The in vitro assay results of the compounds in the present invention were included in Table 1. The compounds described herein, inhibited the transcriptional activity of TEADs, as assessed by decreased luminance from a TEAD reporter cell line (MCF7 TEAD-LUC) in response to compound treatment.

In another test the test system is NCI-H226 cells. Description: NCI-H226 proliferation assay (in house). The class given is cell-based. The note with it: Homo sapiens, 120 h, 5 days, Cell TiterGlo, 20-point 1:2 dilution from 20 μM. The method, then: NCI-H226 Proliferation Assay
NCI-H226 cells were obtained from American Type Culture Collection (ATCC, CRL-5826) and cultured in RPMI 1640 with L-glutamine (Corning, 10-040-CV) supplemented with 10% fetal bovine serum (Gibco, 10438-026) and 1% penicillin-streptomycin (Gibco, 15070063). Cells were trypsinized, resuspended in growth medium, and diluted to a concentrated of 10,000 cells/mL. 500 cells, 50 μL of cell suspension, per well were then plated in a white 384-well plate (Corning) and incubated at 37° C., 5% CO2. After 24 hours incubation, 100 nL of test compounds in DMSO, 20-point 1:2 dilution starting from 20 μM (final concentration) in triplicate, were transferred to each well using an Agilent Bravo instrument outfitted with a pintool head. Cells were incubated at 37° C., 5% CO2 for 5 days followed by the addition of 30 μL of Cell TiterGlo (Promega; diluted 1:6 in water) to each well and luminescence values recorded using an EnVision plate reader. […]

The structures appear in SMILES notation. Where only a bound is given, the exact number is not on record here.

A word on the IC50: it is the concentration that gives 50% inhibition. A high value points to lower potency. Take `C=CC(=O)N[C@H]1C[C@H](Nc2nccnc2Nc2ccc(C(F)(F)F)cc2)C1` [Example 4, N-((1r,3r)-3-((3-((4-(trifluoromethyl)phenyl)amino)pyrazin-2-yl)amino)cyclobutyl) acrylamide]: the IC50 was 8 nM in test [1] and 23.9 µM in the test with NCI-H226 cells.

In the case of `C=CC(=O)N1CCN(c2nccnc2Nc2ccc(C(F)(F)F)cc2)C[C@@H]1CCO` [Example 17, (S)-1-(2-(2-hydroxyethyl)-4-(3-((4-(trifluoromethyl)phenyl)amino)pyrazin-2-yl)piperazin-1-yl)prop-2-en-1-one], the half-maximal inhibitory concentration (IC50) in test [1] is over 20000 nM; in the test on NCI-H226 cells it was 3.3 µM.

As to `C=CC(=O)N1CCN(c2nccnc2Nc2ccc(C(F)(F)F)cc2)C[C@@H]1C(N)=O` [Example 18, (R)-1-acryloyl-4-(3-((4-(trifluoromethyl)phenyl)amino)pyrazin-2-yl)piperazine-2-carboxamide], the IC50 stood at 134 nM in test [1] and 0.701 µM in the test on NCI-H226 cells.

For `C=CC(=O)N1CCN(c2nccnc2Nc2ccc(C(F)(F)F)cc2)C[C@H]1C(N)=O` [Example 19, (S)-1-acryloyl-4-(3-((4-(trifluoromethyl)phenyl)amino)pyrazin-2-yl)piperazine-2-carboxamide], the figures for the half-inhibitory concentration (IC50) (in test [1]; with NCI-H226 cells) were over 20000 nM and over 20 µM, respectively.

Take `C=CC(=O)N1CCN(c2nccnc2Nc2ccc(C(F)(F)F)cc2)CC1CC(N)=O` (stereo not drawn) [Example 20, 2-(1-acryloyl-4-(3-((4-(trifluoromethyl)phenyl)amino)pyrazin-2-yl)piperazin-2-yl)acetamide]: the IC50 in test [1] is over 20000 nM; in the test on NCI-H226 cells it was 2.73 µM.

Regarding `C=CC(=O)N1CCN(c2nccnc2Nc2ccc(OCF)cc2)CC1` [Example 36, 1-(4-(3-((4-(fluoromethoxy)phenyl)amino)pyrazin-2-yl)piperazin-1-yl)prop-2-en-1-one], the half-inhibitory concentration (IC50) came to 5 nM in test [1] and 5.04 µM in the test on NCI-H226 cells.

`C=CC(=O)N1CCN(c2nccnc2Nc2ccc(C(F)F)cn2)CC1` [Example 40, 1-(4-(3-((5-(difluoromethyl)pyridin-2-yl)amino)pyrazin-2-yl)piperazin-1-yl)prop-2-en-1-one]: the 50% inhibitory concentration (IC50) in test [1] was 4 nM; in the test with NCI-H226 cells, over 20 µM.

Consider `C=CC(=O)N1CCN(c2nccnc2N(C)c2ccc(C(F)(F)F)cn2)CC1` [Example 42, 1-(4-(3-(methyl(5-(trifluoromethyl)pyridin-2-yl)amino)pyrazin-2-yl)piperazin-1-yl)prop-2-en-1-one], for which the IC50 in test [1] amounted to 17 nM; with NCI-H226 cells, 0.166 µM.

Turning to `C=CC(=O)N1CCN(c2nccnc2Nc2ccc(C(F)F)nc2)CC1` [Example 47, 1-(4-(3-((6-(difluoromethyl)pyridin-3-yl)amino)pyrazin-2-yl)piperazin-1-yl)prop-2-en-1-one], the IC50 worked out at 4 nM in test [1] and 0.043 µM with NCI-H226 cells.

On to `C=C(F)C(=O)N1CCN(c2nccnc2Nc2cnc(C(F)(F)F)c(F)c2)CC1` [Example 51, 2-fluoro-1-(4-(3-((5-fluoro-6-(trifluoromethyl)pyridin-3-yl)amino)pyrazin-2-yl)piperazin-1-yl)prop-2-en-1-one], for which the results for the half-maximal inhibitory concentration (IC50) (in test [1]; in the test on NCI-H226 cells) were 6.7 nM and 0.331 µM, respectively.

`C=CC(=O)N1CCN(c2nccnc2Nc2ccc(C(F)(F)F)nc2)C[C@@H]1C` [Example 53, (S)-1-(2-methyl-4-(3-((6-(trifluoromethyl)pyridin-3-yl)amino)pyrazin-2-yl)piperazin-1-yl)prop-2-en-1-one]: the half-maximal inhibitory concentration (IC50) in test [1] amounted to 3.6 nM; in the test with NCI-H226 cells, 0.076 µM.

As for `C=CC(=O)N1CCN(c2nccnc2Nc2ccc(C(F)(F)F)nc2)C[C@H]1C` [Example 54, (R)-1-(2-methyl-4-(3-((6-(trifluoromethyl)pyridin-3-yl)amino)pyrazin-2-yl)piperazin-1-yl)prop-2-en-1-one], the IC50 in test [1] was 9 nM; with NCI-H226 cells it was 0.192 µM.

Take `C=C(F)C(=O)N1CC=C(c2nccnc2Nc2ccc(C(F)(F)F)nc2)CC1` [Example 56, 2-fluoro-1-(4-(3-((6-(trifluoromethyl)pyridin-3-yl)amino)pyrazin-2-yl)-3,6-dihydropyridin-1(2H)-yl)prop-2-en-1-one]: the 50% inhibitory concentration (IC50) in test [1] stood at 16.5 nM; in the test on NCI-H226 cells it was 0.145 µM.

Consider `C=CC(=O)N1CCC(c2nccnc2Nc2ccc(C(F)(F)F)nc2)CC1` [Example 61, 1-(4-(3-((6-(trifluoromethyl)pyridin-3-yl)amino)pyrazin-2-yl)piperidin-1-yl)prop-2-en-1-one], for which the IC50 came to 5 nM in test [1] and 0.257 µM with NCI-H226 cells.

On to `C=CC(=O)N1CC(Nc2nccnc2Nc2ccc(C(F)(F)F)nc2)C1` [Example 62, 1-(3-((3-((6-(trifluoromethyl)pyridin-3-yl)amino)pyrazin-2-yl)amino)azetidin-1-yl)prop-2-en-1-one], for which the concentration for half-maximal inhibition (IC50) turned out to be 10.7 nM in test [1] and 8.67 µM in the test with NCI-H226 cells.

Regarding `C=C(F)C(=O)N1CC(Nc2nccnc2Nc2ccc(OC(F)(F)F)nc2)C1` [Example 64, 2-fluoro-1-(3-((3-((6-(trifluoromethoxy)pyridin-3-yl)amino)pyrazin-2-yl)amino)azetidin-1-yl)prop-2-en-1-one], the results for the IC50 (in test [1]; in the test with NCI-H226 cells) were 1680 nM and 3.12 µM, respectively.

Consider `C=C(F)C(=O)N1CC(Oc2nccnc2Nc2ccc(C(F)(F)F)nc2)C1` [Example 65, 2-fluoro-1-(3-((3-((6-(trifluoromethyl)pyridin-3-yl)amino)pyrazin-2-yl)oxy)azetidin-1-yl)prop-2-en-1-one], for which the IC50 in test [1] worked out at 18.6 nM; in the test on NCI-H226 cells, 1.85 µM.

Regarding `C=C(F)C(=O)N1CCN(c2nccnc2NC2C3CC2C3C(F)(F)F)CC1` (stereo not drawn) [Example 68, 2-fluoro-1-(4-(3-((4-(trifluoromethyl)bicyclo[1.1.1]pentan-2-yl)amino)pyrazin-2-yl)piperazin-1-yl)prop-2-en-1-one], the concentration for half-maximal inhibition (IC50) came out at 11 nM in test [1] and 0.708 µM in the test on NCI-H226 cells.

On to `C=CC(=O)N1CCN(c2nccnc2Oc2ccc(OC)cc2)CC1` [Example 70, 1-(4-(3-(4-methoxyphenoxy)pyrazin-2-yl)piperazin-1-yl)prop-2-en-1-one], for which the IC50 in test [1] is 3 nM; in the test with NCI-H226 cells, 0.028 µM.

As for `C=CC(=O)N1CCC(c2nccnc2Oc2ccc(C(F)(F)F)cn2)CC1` [Example 75, 1-(4-(3-((5-(trifluoromethyl)pyridin-2-yl)oxy)pyrazin-2-yl)piperidin-1-yl)prop-2-en-1-one], the results for the IC50 (in test [1]; with NCI-H226 cells) were 2.7 nM and 0.112 µM, respectively.

In the case of `C=CC(=O)N1CCN(c2nccnc2Oc2ccc(C(F)(F)F)nc2)CC1` [Example 77, 1-(4-(3-((6-(trifluoromethyl)pyridin-3-yl)oxy)pyrazin-2-yl)piperazin-1-yl)prop-2-en-1-one], the IC50 worked out at 1.8 nM in test [1] and 0.008 µM with NCI-H226 cells.

In turn, `C=CC(=O)N1CC(Nc2nccnc2N2CC(c3ccc(F)cc3)C2)C1` [Example 108, 1-(3-((3-(3-(4-fluorophenyl)azetidin-1-yl)pyrazin-2-yl)amino)azetidin-1-yl)prop-2-en-1-one] displayed an IC50 in the test on NCI-H226 cells of over 10 µM.

As to `C=C(F)C(=O)N1CC(Nc2nccnc2N2CC(c3ccc(F)cc3)C2)C1` [Example 109, 2-fluoro-1-(3-((3-(3-(4-fluorophenyl)azetidin-1-yl)pyrazin-2-yl)amino)azetidin-1-yl)prop-2-en-1-one], the IC50 in the test with NCI-H226 cells was over 10 µM.

Regarding `C=CC(=O)N1CCC(c2ncc(C)nc2Oc2ccc(C(F)(F)F)nc2)CC1` [Example 116, 1-(4-(5-methyl-3-((6-(trifluoromethyl)pyridin-3-yl)oxy)pyrazin-2-yl)piperidin-1-yl)prop-2-en-1-one], in the test on NCI-H226 cells, the IC50 amounted to 0.022 µM.

In the case of `C=C(F)C(=O)N1CCC(c2ncc(C)nc2Oc2ccc(C(F)(F)F)nc2)CC1` [Example 117, 2-fluoro-1-(4-(5-methyl-3-((6-(trifluoromethyl)pyridin-3-yl)oxy)pyrazin-2-yl)piperidin-1-yl)prop-2-en-1-one], the IC50 in the test with NCI-H226 cells came to 0.158 µM.

`C=CC(=O)N1CCC(c2nccn(-c3ncc(C(F)(F)F)cn3)c2=O)CC1` [Example 118, 3-(1-acryloylpiperidin-4-yl)-1-(5-(trifluoromethyl)pyrimidin-2-yl)pyrazin-2(1H)-one] showed an IC50 in the test with NCI-H226 cells of over 10 µM.

As to `C=C(F)C(=O)N1CCC(c2cncnc2Oc2ccc(C(F)(F)F)nc2)CC1` [Example 127, 2-fluoro-1-(4-(4-((6-(trifluoromethyl)pyridin-3-yl)oxy)pyrimidin-5-yl)piperidin-1-yl)prop-2-en-1-one], the half-maximal inhibitory concentration (IC50) in the test with NCI-H226 cells turned out to be 66.8 µM.

These data come from US20250206722A1, “SMALL MOLECULE INHIBITORS OF TEA DOMAIN FAMILY MEMBERS” (The Scripps Research Institute, priority 2022, published 2025).
